Data reported in US5204352A, “Compounds exhibiting anti-parasitic activity and a method for their use” (The United States of America as represented by the …, priority 1987, dated 1993).

Experiments:
in vivo = experiment: in vivo; set-up: species or system mice; conditions: mouse, sc
Procedure: The preferred mode of administration of these compounds is subcutaneously. With subcutaneous administration, however, many of the compounds show lethal toxicity at very high dosage amounts. Thus, it is also possible to administer these compounds peritoneally. Compounds which are subcutaneously active are generally peritoneally active at higher doses. Further, none of the compounds administered peritoneally have shown lethal toxicity at dosages up to 400 mg/kg.
(§1) The compounds of the present invention were evaluated biologically in vivo with groups of 5 mice at various dose levels. Unless otherwise indicated, the data are for subcutaneous administration. Dose levels marked with an asterisk are for peritoneal administration in a HEC+T medium. In addition, Table 2 present results of peritoneal administration with substituted quanylhydrazones. The biological evaluation was done according to a standard protocol based on the method described by Rane et al., Amer. J. Trop. Med Hyg. 25:395 (1976).

Trypanosoma rhodesiense [1] = experiment: In vivo trypanocidal activity in infected mice (protocol based on Rane et al.); conditions: subcutaneous
Procedure: as §1, with “(1976). […]” for “(1976).”

Trypanosoma rhodesiense [2] = conditions: previously known bis-amidine and bis-guanylhydrazones; cited from earlier work

Compound | Trypanocidal activity, cures (Trypanosoma rhodesiense [1]; 13 mg/kg) | Trypanocidal activity (Trypanosoma rhodesiense [2]) | other results
Cc1ccc2n(c1)cc(-c1ccc(C=NNC3=NCCCN3)cc1)[n+]2C [2-(3,4,5,6-tetrahydropyrimidyI)hydrazone of 1,6-dimethyl-2-(4'-formylphenyl)imidazo[1,2-a]-pyridinium bromide] | – | – | MTD (in vivo): ~100 mg/kg
C[n+]1c(C=Cc2ccc(C=NNC(=N)N3CCCC3)cc2)cn2ccccc21 [BL12165] | 10/10 | – | Increase in survival (Trypanosoma rhodesiense [1]; 1.6 mg/kg): 5.2 days; Trypanocidal activity, cures (Trypanosoma rhodesiense [1]; 1.6 mg/kg): 6/10; Increase in survival (Trypanosoma rhodesiense [1]; 3.3 mg/kg): 12.3 days; Trypanocidal activity, cures (Trypanosoma rhodesiense [1]; 3.3 mg/kg): 2/5; Trypanocidal activity, cures (Trypanosoma rhodesiense [1]; 26 mg/kg): 15/15
Cn1cc[n+](C)c1C=Cc1ccc(C=NNC2=NCCCN2)cc1 [BL21584] | 10/10 | – | Trypanocidal activity, cures (Trypanosoma rhodesiense [1]; 6.6 mg/kg): 5/5
CCN=C(NCC)NN=Cc1ccc(OCc2n(C)cc[n+]2C)cc1 [BL28038] | 3/5 | – | –
N=C(N)c1ccc(-c2cc3ccc(C(=N)N)cc3[nH]2)cc1 [DAPI, 2-phenylindole-5-4'-bis-carboxamidine] | – | show trypanocidal activity | –
N=C(N)c1cccc(NC(=O)Nc2cccc(C(=N)N)c2)c1 [aminocarbilide] | – | show trypanocidal activity | –
N=C(N)c1ccc(N=NNc2ccc(C(=N)N)cc2)cc1 [berenil] | – | show trypanocidal activity | –
CC(=NNC(=N)N)c1cccc(C(C)=NNC(=N)N)c1 [m-diacetylbenzene-bis-guanylhydrazone] | – | show trypanocidal activity | –
N=C(N)c1ccc(OCCCCCOc2ccc(C(=N)N)cc2)cc1 [pentamidine] | – | show trypanocidal activity | –
